From ChEMBL document CHEMBL1129208, “Synthesis and activity of 2,6,9-trisubstituted purines” (Bioorg Med Chem Lett, 1997) come the findings set out here.

Several values for one entry are separate records, joined by “and”; a condition that tells them apart may be missing. Identical values can stand only once. Where only a bound is given, the exact number is not on record here.

This assay has as its target Cyclin-dependent kinase 2/cyclin E (Homo sapiens, UniProt P24941). Put plainly: Inhibitory concentration against cyclin dependent kinase-2 (CDK2)/Cyclin E. The format is protein-complex assay.

The term IC50 denotes the concentration that inhibits the measured activity by half. A higher IC50 goes with weaker potency. In the case of `CC(C)n1cnc2c(Nc3ccc(Br)cc3)nc(Nc3ccc(Br)cc3)nc21`, the half-inhibitory concentration (IC50) came out at 5000 nM.

Consider `CC(C)n1cnc2c(Nc3ccc(-c4ccccc4)cc3)nc(N(CCO)CCO)nc21`, for which half-maximal inhibition (IC50) was put at 600 nM.

Turning to `CC(C)n1cnc2c(NC3Cc4ccccc4C3)nc(N(CCO)CCO)nc21`, the IC50 was > 5000 nM.

The molecule `CC(C)n1cnc2c(Nc3cnc4ccccc4c3)nc(N(CCO)CCO)nc21` yielded a half-maximal inhibitory concentration (IC50) of 2000 nM.

As for `CC(C)n1cnc2c(N(C)C3CC3)nc(N(CCO)CCO)nc21`, the IC50 is 2000 nM.

For `COc1ccc(CNc2nc(N(C)CC(O)c3ccc(O)c(O)c3)nc3c2ncn3C(C)C)cc1` (configuration not stated), the half-inhibitory concentration (IC50) came to 3000 nM.

Regarding `CC(C)n1cnc2c(Nc3ccc(Br)cc3)nc(N(CCO)CCO)nc21`, it took 1000 nM to reach half-maximal inhibition (IC50).

As for `COc1ccc(CNc2nc(NCCc3c[nH]c4ccccc34)nc3c2ncn3C(C)C)cc1`, the IC50 came out at 2000 nM.

Take `Cn1cnc2c(NC(C)(C)CO)nc(Cl)nc21`: the IC50 is > 5000 nM.

In the case of `COc1ccc(CNc2nc(N(Cc3cccnc3)CC(C)C#N)nc3c2ncn3C(C)C)cc1` (configuration not stated), the IC50 came out at 1000 nM.

Consider `COc1ccc(CNc2nc(NCC(O)CO)nc3c2ncn3C(C)C)cc1` (configuration not stated), for which the half-maximal inhibitory concentration (IC50) is 2000 nM.

On to `COc1ccc(CNc2nc(NC(C)(O)CO)nc3c2ncn3C(C)C)cc1` (configuration not stated), for which inhibition was half-maximal at 500 nM (IC50).

For `COc1ccc(CNc2nc(Cl)nc3c2ncn3C)cc1`, the concentration for half-maximal inhibition (IC50) is 4000 nM and 700 nM.

`COc1ccc(CNc2nc(N(CCO)CCO)nc3c2ncn3Cc2cccc([N+](=O)[O-])c2)cc1` returned a concentration for half-maximal inhibition (IC50) of 2000 nM.

Regarding `CC(C)Cn1cnc2c(N(C)c3cccnc3)nc(Cl)nc21`, the 50% inhibitory concentration (IC50) was > 5000 nM.

On to `COc1ccc(CNc2nc(N(C)CC(O)c3ccccc3)nc3c2ncn3C(C)C)cc1` (configuration not stated), for which the 50% inhibitory concentration (IC50) is > 5000 nM.

Turning to `CC(C)n1cnc2c(NCc3ccc(-c4ccccc4)cc3)nc(NCc3ccco3)nc21`, the IC50 is > 5000 nM.

Molecule `COc1ccc(CNc2nc(N3CCCC3)nc3c2ncn3C(C)C)cc1` yielded an IC50 of 5000 nM.

Regarding `Cn1cnc2c(NCCc3ccccc3)nc(Cl)nc21`, the IC50 is > 5000 nM.

Consider `CC(C)(C)OC(=O)Cn1cnc2c(NCc3ccc(-c4ccccc4)cc3)nc(N(CCO)CCO)nc21`, for which the half-maximal inhibitory concentration (IC50) was determined as 5000 nM. This lies in the single-digit micromolar range.

Consider `COCCNc1nc(Cl)nc2c1ncn2C`, for which the IC50 is > 5000 nM.

In the case of `CCCCc1ccc(CNc2nc(N(CCO)CCO)nc3c2ncn3C(C)C)cc1`, 2000 nM corresponded to half-maximal inhibition (IC50).

Consider `Cn1cnc2c(NCc3cccnc3)nc(Cl)nc21`, for which the IC50 is > 5000 nM.

For `Clc1nc(NCc2ccccc2)c2[nH]cnc2n1`, the IC50 was > 5000 nM.

`COc1ccc(CNc2nc(N(CCO)CCO)nc3c2ncn3Cc2ccc([N+](=O)[O-])cc2)cc1`: the IC50 is 2000 nM.

As for `CN(c1ccncc1)c1nc(Cl)nc2c1ncn2C1CCCC1`, the IC50 was > 5000 nM.

As for `COc1ccc(CNc2nc(N3CCC(O)C3)nc3c2ncn3C(C)C)cc1` (configuration not stated), the IC50 was > 5000 nM.

The molecule `COc1ccc(CNc2nc(N(CCO)CCO)nc3c2ncn3C2CCCC2)cc1` returned a half-inhibitory concentration (IC50) of 2000 nM.

`CC(O)Nc1nc(NCc2ccc(-c3ccccc3)cc2)c2ncn(C(C)C)c2n1` (configuration not stated) showed an IC50 of 3000 nM. Compared with the last molecule, the IC50 is about 1.5-fold higher.

As to `COc1ccc(CNc2nc(NCCN)nc3c2ncn3C(C)C)cc1`, the IC50 is > 5000 nM.

Regarding `COc1ccc(CNc2nc(N(CCO)CCO)nc3c2ncn3Cc2ccccc2-c2ccccc2)cc1`, the half-inhibitory concentration (IC50) was > 5000 nM.

For `CC(C)n1cnc2c(N(C)Cc3ccc(-c4ccccc4)cc3)nc(Cl)nc21`, the IC50 is > 5000 nM.

For `COc1ccc(CNc2nc(Cl)nc3c2ncn3Cc2ccc(-c3ccccc3)cc2)cc1`, the 50% inhibitory concentration (IC50) was > 5000 nM.

With `CC(C)n1cnc2c(NCc3ccc(-c4ccccc4)cc3)nc(N(CCO)CCO)nc21`, half-maximal inhibition (IC50) was put at 1000 nM.

With `CC(C)n1cnc2c(Nc3cccc4cccnc34)nc(N(CCO)CCO)nc21`, the IC50 is > 5000 nM.

For the molecule `CC(C)n1cnc2c(Nc3nc4ccccc4s3)nc(Cl)nc21`, the IC50 is > 5000 nM.

As to `Cn1cnc2c(NCCCCCCO)nc(Cl)nc21`, the half-maximal inhibitory concentration (IC50) was > 5000 nM.

With `Cn1cnc2c(Nc3nc4ccccc4s3)nc(Cl)nc21`, the half-maximal inhibitory concentration (IC50) is > 5000 nM.

For the molecule `O=C1c2ccccc2C(=O)N1CCNc1nc(Cl)nc2nc[nH]c12`, the IC50 was > 5000 nM.

Consider `COCCCNc1nc(Cl)nc2c1ncn2C`, for which the IC50 was > 5000 nM.

The molecule `COc1ccc(CNc2nc(N(CCO)Cc3ccccc3)nc3c2ncn3C(C)C)cc1` had an IC50 of 1000 nM.

Regarding `COc1ccc(CNc2nc(NCCO)nc3c2ncn3C)cc1`, the IC50 stood at 2500 nM.

On to `Cn1cnc2c(NC3CCCC3)nc(Cl)nc21`, for which the half-maximal inhibitory concentration (IC50) is > 5000 nM.

`CC(C)n1cnc2c(NCc3ccc(Br)cc3)nc(N(CCO)CCO)nc21`: half-maximal inhibition (IC50) required 2000 nM.

For `CCCn1cnc2c(NCCCCCCO)nc(Cl)nc21`, the IC50 was > 5000 nM.

Turning to `CC(C)n1cnc2c(Nc3ccccc3)nc(N(CCO)CCO)nc21`, it took 2000 nM to reach half-maximal inhibition (IC50).

Regarding `COc1ccc(CNc2nc(C3CC[C@@H](Cc4ccccc4N)N3)nc3c2ncn3C(C)C)cc1` (some centres not stated), the half-inhibitory concentration (IC50) was > 5000 nM.

Consider `COc1ccc(CNc2nc(NCCO)nc3c2ncn3C(C)C)cc1`, for which inhibition was half-maximal at 1500 nM (IC50).

The molecule `COCCN(CCOC)c1nc(NCc2ccc(-c3ccccc3)cc2)c2ncn(C(C)C)c2n1` gave a concentration for half-maximal inhibition (IC50) of 5000 nM.

In the case of `CC(C)n1cnc2c(NCCCc3ccccc3)nc(N(CCO)CCO)nc21`, the concentration for half-maximal inhibition (IC50) is > 5000 nM.

As for `Cn1cnc2c(NCc3ccncc3)nc(Cl)nc21`, the IC50 is > 5000 nM.

Take `N#CCCCNc1nc(Cl)nc2nc[nH]c12`: the half-inhibitory concentration (IC50) is > 5000 nM.

In the case of `FC(F)(F)n1cnc2c(NCc3ccc(Cl)cc3)nc(Cl)nc21`, the 50% inhibitory concentration (IC50) is 1000 nM.

Molecule `COc1ccc(CNc2nc(N3CCC(O)CC3)nc3c2ncn3C(C)C)cc1` came in with an IC50 of 2000 nM. Compared with the last molecule, the IC50 is about 2-fold higher.

For `COc1ccc(CNc2nc(N(CCO)CCO)nc3c2ncn3CC(C)C)cc1`, the IC50 came out at 2000 nM.

As to `CN(Cc1ccc(C(=O)O)cc1)c1[nH]c(Cl)nc2ncnc1-2`, the IC50 was > 5000 nM.

In turn, `COc1ccc(CNc2nc(N3CCCCC3CO)nc3c2ncn3C(C)C)cc1` (configuration not stated) returned a half-maximal inhibitory concentration (IC50) of 4000 nM.

For `COc1ccc(CNc2nc(NC3CCCCC3O)nc3c2ncn3C(C)C)cc1` (configuration not stated), the IC50 came out at 1000 nM.

As for `ClCCCCNc1[nH]c(Cl)nc2ncnc1-2`, the IC50 was > 5000 nM.

The molecule `CCC(C)Cn1cnc2c(NCc3ccc(OC)cc3)nc(N(CCO)CCO)nc21` (configuration not stated) yielded an IC50 of 2000 nM. This counts as single-digit micromolar.

For the molecule `Cn1cnc2c(NC3CCN(Cc4ccccc4)CC3)nc(Cl)nc21`, the IC50 was > 5000 nM.

For the molecule `CC(C)n1cnc2c(NCc3ccc4c(c3)OCO4)nc(N(CCO)CCO)nc21`, 800 nM corresponded to half-maximal inhibition (IC50).

`CCCCCCCC/C=C\CCCCCCCCn1cnc2c(NCc3ccc(OC)cc3)nc(N(CCO)CCO)nc21` came in with an IC50 of 3000 nM.

Turning to `COc1ccc(CNc2nc(N(CCO)CCO)nc3c2ncn3CCO)cc1`, the concentration for half-maximal inhibition (IC50) came out at 1000 nM.

In turn, `COc1ccc(CNc2nc(N(CCO)CCO)nc3c2ncn3Cc2ccc3ccccc3c2)cc1` returned a half-inhibitory concentration (IC50) of 5000 nM.

On to `CC(C)n1cnc2c(NCc3ccc(-c4ccccc4)cc3)nc(NCC(O)CO)nc21` (configuration not stated), for which half-maximal inhibition (IC50) required 600 nM.

For the molecule `CC(C)n1cnc2c(NCc3ccc(C4=CC(=S)CC=C4)cc3)nc(N(CCO)CCO)nc21`, the half-inhibitory concentration (IC50) was > 5000 nM.

Consider `C=CCN(CC=C)c1nc(NCc2ccc(OC)cc2)c2ncn(C(C)C)c2n1`, for which the IC50 is > 5000 nM.

In the case of `CCn1cnc2c(NCCc3ccccc3)nc(Cl)nc21`, the IC50 was > 5000 nM.

Take `CC(C)n1cnc2c(NCc3ccc(-c4cccs4)cc3)nc(N(CCO)CCO)nc21`: the midpoint of inhibition, the IC50, lay at 600 nM.

`COc1ccc(CNc2nc(N(CCO)CCO)nc3c2ncn3CC(O)CO)cc1` (configuration not stated): the IC50 is > 5000 nM.

In the case of `COc1ccc(CNc2nc(NC(O)CN)nc3c2ncn3C(C)C)cc1` (configuration not stated), the half-inhibitory concentration (IC50) came out at 1000 nM. That is a single-digit micromolar value.
